Values of other authors in patent US7217681B2, “Pesticidal composition and method for fungal control” (Syngenta Crop Protection, Inc., priority 2004, dated 2007).

Tested on: fungi
Settings: reported by Burg et al., Ivermectin and Abamectin, 1989

Which “anti-bacterial or antifungal activity” value does the source give for abamectin here?
The value was “no anti-bacterial or antifungal activity”.
